Results from PubChem BioAssay (NCI).
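Briefly, cells in 96-well plates were exposed to five compound concentrations for 48 h, and endpoints were estimated by linear interpolation. Here, GI50 denotes the concentration required for 50% inhibition of growth. The concentration for full growth arrest is given as TGI.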

Experiments:
Test in all cases: inhibition of tumour cell growth, NCI panel, 48 h
NCI-H522 lung = test system: NCI-H522 lung
HL-60(TB) leukemia = test system: HL-60(TB) leukemia
M14 melanoma = test system: M14 melanoma
CCRF-CEM leukemia = test system: CCRF-CEM leukemia
OVCAR-4 ovarian = test system: OVCAR-4 ovarian
NCI/ADR-RES ovarian = test system: NCI/ADR-RES ovarian
HT29 colon = test system: HT29 colon
SNB-75 CNS = test system: SNB-75 CNS
BT-549 breast = test system: BT-549 breast
UACC-62 melanoma = test system: UACC-62 melanoma

| Compound | TGI (NCI-H522 lung) [µM] | TGI (HL-60(TB) leukemia) [µM] | TGI (M14 melanoma) [µM] | TGI (CCRF-CEM leukemia) [µM] | TGI (OVCAR-4 ovarian) [µM] | TGI (NCI/ADR-RES ovarian) [µM] | TGI (HT29 colon) [µM] | TGI (SNB-75 CNS) [µM] | GI50 (NCI-H522 lung) [µM] | GI50 (HL-60(TB) leukemia) [µM] | GI50 (M14 melanoma) [µM] | GI50 (OVCAR-4 ovarian) [µM] | GI50 (BT-549 breast) [µM] | TGI (BT-549 breast) [µM] | GI50 (HT29 colon) [µM] | GI50 (SNB-75 CNS) [µM] | GI50 (UACC-62 melanoma) [µM] | TGI (UACC-62 melanoma) [µM] | GI50 (CCRF-CEM leukemia) [µM] | GI50 (NCI/ADR-RES ovarian) [µM] |
| --- | --- | --- | --- | --- | --- | --- | --- | --- | --- | --- | --- | --- | --- | --- | --- | --- | --- | --- | --- | --- |
| O=S(=O)(O)c1cc(O)c(N=Nc2ccc(O)cc2O)c2ccccc12 | 95.4 | > 100 | > 100 | > 100 | > 100 | > 100 | > 100 | > 100 | – | – | – | – | – | – | – | – | – | – | – | – |
| O=[N+]([O-])C=C(c1ccc(Cl)cc1)c1ccc(Cl)cc1 | 28.8 | 44 | 30.5 | 67.7 | 27.6 | – | 35.5 | 39.7 | – | – | – | – | – | – | – | – | – | – | – | – |
| C[C@]12CC[C@H]3[C@@H](CC=C4C[C@@H](N5CCCC5)CC[C@@]43C)[C@@H]1C/C(=C\c1cccc(OCCN3CCOCC3)c1)[C@@H]2O | 29.7 | > 100 | 4.07 | – | 55.2 | – | 15.7 | 34.3 | 8.21 | 4.32 | 1.96 | 13.3 | 2.33 | > 100 | 0.532 | 14.6 | 17.6 | 33.2 | – | – |
| CC(N)(Cc1c[nH]c2cccc(F)c12)C(=O)O (stereo not drawn) | > 1000 | > 1000 | > 1000 | > 1000 | > 1000 | > 1000 | > 1000 | > 1000 | > 1000 | > 1000 | > 1000 | > 1000 | – | – | > 1000 | 405 | > 1000 | > 1000 | > 1000 | > 1000 |
| CC1/C(=N\O)CC(c2ccccc2)N(C)C1c1ccccc1 (stereo not drawn) | > 100 | > 100 | > 100 | > 100 | > 100 | – | > 100 | > 100 | – | – | – | – | – | – | – | – | – | > 100 | – | – |
| O=C1C(c2ccc(Br)cc2)=[N+]([O-])c2ccccc21 | 11.8 | 12.4 | 29.8 | 22.6 | – | – | 43.8 | 31.4 | – | – | – | – | – | – | – | – | – | 29.7 | – | – |
| O=C(CC1OC(O)C(Cl)=C1Cl)c1cccnc1 (stereo not drawn) | > 100 | > 100 | > 100 | > 100 | > 100 | – | > 59.7 | > 100 | – | – | – | – | – | – | – | – | – | > 100 | – | – |
| CN(c1ccc(C(=O)c2ccc(N(C)S(C)(=O)=O)cc2)cc1)S(C)(=O)=O | > 100 | > 100 | – | > 100 | > 100 | – | > 100 | > 100 | – | – | – | – | – | – | – | – | – | > 100 | – | – |
| Cc1cccc(C2SCc3nc4ccccc4n32)c1 (stereo not drawn) | 60.7 | 33.5 | > 100 | > 100 | > 100 | – | > 100 | 20.7 | – | – | – | – | – | – | – | – | – | > 100 | – | – |
| CCOC(=O)c1cc2c(cc1Cl)SC(=Nc1ccccc1)N(S(=O)(=O)c1ccc(Cl)cc1)S2(=O)=O | 42.8 | – | 26 | 7.4 | > 100 | 36.5 | > 100 | > 100 | 15.5 | – | 11.2 | 31.5 | 14.5 | 30.4 | 19.4 | 38.2 | 10.2 | 23.7 | 2.57 | 18.3 |
| O=c1[nH]c2ccccc2nc1/C=C(\O)c1ccccc1O | > 100 | > 100 | > 100 | > 100 | > 100 | – | > 100 | > 100 | – | – | – | – | – | – | – | – | – | > 100 | – | – |
| COc1ccc(-c2nc(-c3ccc(C)cc3)cn3ccnc23)cc1 | – | > 50 | > 50 | > 50 | – | > 50 | – | – | – | 2.58 | 3.23 | – | 26.4 | > 50 | – | – | 4.39 | > 50 | 5.47 | 2.16 |
| CCOP(=O)(OCC)C1CCCOC1=O (stereo not drawn) | – | > 100 | > 100 | > 100 | > 100 | – | > 100 | > 100 | – | – | – | – | – | – | – | – | – | > 100 | – | – |
| CN(C)C(=N/O)/C(=N\O)N(C)C | > 100 | > 100 | > 100 | > 100 | > 100 | – | > 100 | > 100 | – | – | – | – | – | – | – | – | – | > 100 | – | – |
| Cc1cc2c(C)n(Cc3ccccc3Cl)nc2c(C(=O)O)c1C | – | > 100 | – | > 100 | – | – | > 100 | > 100 | – | – | – | – | – | – | – | – | – | > 100 | – | – |
| CNC(=O)c1c(NC(=O)c2ccc(C(C)(C)C)cc2)sc2c(CN(C)C)c(O)ccc12 | – | 3.18 | 3.54 | 4.68 | – | – | – | – | – | 1.26 | 1.74 | – | – | – | – | – | 1.76 | 3.24 | 1.2 | – |
| OC(COC(c1ccccc1)(c1ccccc1)c1ccccc1)C(O)CC1SCCS1 (stereo not drawn) | – | > 100 | 84.3 | > 100 | – | 52.9 | 34.3 | – | – | – | – | – | – | 44.1 | – | – | – | 36 | – | – |
| O=C([CH-]C(=O)c1ccccc1)c1ccccc1.[CH-]1CCCCC1.[CH-]1CCCCC1.[CH-]1CCCCC1.[Sn+4] | 5.26 | 6.59 | 22.4 | – | – | – | 38.5 | 21.3 | 2.03 | 2.28 | 8.3 | – | – | – | 14 | 7.09 | 4.34 | 15.6 | – | – |
| CC1=C(C(=O)Nc2ccccc2)C(c2cccc3ccccc23)C(C(=O)Nc2ccccc2)=C(C)N1 | 35.6 | 40 | 32.5 | 59.6 | – | – | 36.2 | 47.7 | – | – | – | – | – | – | – | – | – | 27.8 | – | – |
| COC(=O)C1=C(O)[C@H](C(=O)OC)C2(O)C(C(=O)OC)[C@H](c3ccc(OC(=O)C(C)c4ccc(CC(C)C)cc4)cc3)C[C@@H]1[C@@H]2C(=O)OC (stereo partly drawn) | > 50 | – | > 50 | – | > 50 | > 50 | – | – | 14.3 | – | 25.3 | 11.7 | 1.03 | 3.68 | – | – | 9.41 | 22.4 | – | > 50 |
| COC(=O)N/N=C(\C)c1c(O)cc(C)oc1=O | – | > 100 | > 100 | > 100 | > 100 | – | > 100 | > 100 | – | – | – | – | – | – | – | – | – | > 100 | – | – |
